# Laboratory results published in PMC5218480 (PLoS ONE, 2017).
# Test system: MV-4-11 cells
# Assay: Gene expression microarray analysis (Affymetrix PrimeView) and GSEA
# Format: cell-based, human
# Set-up: RFU PODN (11730768_x_at) / Fold change /veh PODN (11730768_x_at) / RFU LINC00158 (11744669_a_at) / Fold change /veh LINC00158 (11744669_a_at) / RFU DUSP10 (11751237_a_at) / Fold change /veh DUSP10 (11751237_a_at) / RFU ID3 (11757404_x_at) / Fold change /veh ID3 (11757404_x_at) / RFU PLEKHG5 (11737974_s_at) / Fold change /veh PLEKHG5 (11737974_s_at) / RFU LRRC4B (11730491_at) / Fold change /veh LRRC4B (11730491_at) / RFU GIMAP4 (11747438_a_at) / Fold change /veh GIMAP4 (11747438_a_at) / RFU KRT8 (11758183_x_at) / Fold change /veh KRT8 (11758183_x_at) / RFU CNN1 (11734310_a_at) / Fold change /veh CNN1 (11734310_a_at) / RFU VPS37D (11726825_at) / Fold change /veh VPS37D (11726825_at) / RFU C10orf10 (11716522_x_at) / Fold change /veh C10orf10 (11716522_x_at) / RFU KIR2DL2 /// KIR2DL4 /// KIR2DL5A /// KIR2DL5B /// KIR2DS1 /// KIR2DS2 /// KIR2DS3 /// KIR2DS4 /// KIR3DL3 /// KIR3DL3 /// KIR3DS1 (11738374_at) / Fold change /veh KIR2DL2 /// KIR2DL4 /// KIR2DL5A /// KIR2DL5B /// KIR2DS1 /// KIR2DS2 /// KIR2DS3 /// KIR2DS4 /// KIR3DL3 /// KIR3DL3 /// KIR3DS1 (11738374_at) / RFU C1QL1 (11718748_at) / Fold change /veh C1QL1 (11718748_at) / RFU TMPRSS4 (11747572_a_at) / Fold change /veh TMPRSS4 (11747572_a_at) / RFU HAMP (11756126_x_at) / Fold change /veh HAMP (11756126_x_at) / RFU RNFT2 (11725882_a_at) / Fold change /veh RNFT2 (11725882_a_at) / RFU NR4A2 (11747474_a_at) / Fold change /veh NR4A2 (11747474_a_at) / RFU ABCC12 (11746883_a_at) / Fold change /veh ABCC12 (11746883_a_at) / RFU TMEM136 (11760407_x_at) / Fold change /veh TMEM136 (11760407_x_at) / RFU CLDN22 /// WWC2 (11732394_at) / Fold change /veh CLDN22 /// WWC2 (11732394_at) / RFU HLA-DPB1 (11760878_x_at) / Fold change /veh HLA-DPB1 (11760878_x_at) / RFU SPINT1 (11716480_a_at) / Fold change /veh SPINT1 (11716480_a_at) / RFU GAP43 (11754022_s_at) / Fold change /veh GAP43 (11754022_s_at) / RFU A4GNT (11735810_at) / Fold change /veh A4GNT (11735810_at) / RFU PRB3 (11715151_x_at) / Fold change /veh PRB3 (11715151_x_at) / RFU TUBB4B (11761932_at) / Fold change /veh TUBB4B (11761932_at) / RFU CAPN14 (11732068_a_at) / Fold change /veh CAPN14 (11732068_a_at) / RFU TMCC2 (11721928_a_at) / Fold change /veh TMCC2 (11721928_a_at) / RFU IRGQ (11745062_a_at) / Fold change /veh IRGQ (11745062_a_at) / RFU FAM174B (11720279_a_at) / Fold change /veh FAM174B (11720279_a_at) / RFU TMPRSS4 (11748680_a_at) / Fold change /veh TMPRSS4 (11748680_a_at) / RFU FAM212B (11763350_a_at) / Fold change /veh FAM212B (11763350_a_at) / RFU PLEKHG5 (11743358_a_at) / Fold change /veh PLEKHG5 (11743358_a_at) / RFU ZSCAN30 (11745921_a_at) / Fold change /veh ZSCAN30 (11745921_a_at) / RFU CMKLR1 (11741424_a_at) / Fold change /veh CMKLR1 (11741424_a_at) / RFU LOC101060620 /// MAPK8IP1 (11723275_at) / Fold change /veh LOC101060620 /// MAPK8IP1 (11723275_at) / RFU SPTSSB (11747773_x_at) / Fold change /veh SPTSSB (11747773_x_at) / RFU PRSS12 (11739890_at) / Fold change /veh PRSS12 (11739890_at) / RFU BIN1 (11741810_x_at) / Fold change /veh BIN1 (11741810_x_at) / RFU WNT11 (11732464_a_at) / Fold change /veh WNT11 (11732464_a_at) / RFU C10orf10 (11716521_a_at) / Fold change /veh C10orf10 (11716521_a_at) / RFU C5orf56 (11738089_at) / Fold change /veh C5orf56 (11738089_at) / RFU CYB561 (11721691_x_at) / Fold change /veh CYB561 (11721691_x_at) / RFU ANKRD19P (11752326_a_at) / Fold change /veh ANKRD19P (11752326_a_at) / RFU OR2T12 /// OR2T33 /// OR2T8 (11738714_s_at) / Fold change /veh OR2T12 /// OR2T33 /// OR2T8 (11738714_s_at) / RFU VCAN (11748164_a_at) / Fold change /veh VCAN (11748164_a_at) / RFU JSRP1 (11732532_at) / Fold change /veh JSRP1 (11732532_at) / RFU KRTAP10-11 (11738290_x_at) / Fold change /veh KRTAP10-11 (11738290_x_at) / RFU MYO3A (11730013_a_at) / Fold change /veh MYO3A (11730013_a_at) / RFU EBF3 (11725865_a_at) / Fold change /veh EBF3 (11725865_a_at) / RFU CAMK2N1 (11719241_x_at) / Fold change /veh CAMK2N1 (11719241_x_at) / RFU C5orf56 (11738088_a_at) / Fold change /veh C5orf56 (11738088_a_at) / RFU OLFML3 (11715873_a_at) / Fold change /veh OLFML3 (11715873_a_at) / RFU LOC100653217 /// NTM (11731650_a_at) / Fold change /veh LOC100653217 /// NTM (11731650_a_at) / RFU MAPK11 (11762145_a_at) / Fold change /veh MAPK11 (11762145_a_at) / RFU FIZ1 (11724087_x_at) / Fold change /veh FIZ1 (11724087_x_at) / RFU OASL (11726364_x_at) / Fold change /veh OASL (11726364_x_at) / RFU SOX15 (11748057_x_at) / Fold change /veh SOX15 (11748057_x_at) / RFU CD79A (11719716_a_at) / Fold change /veh CD79A (11719716_a_at) / RFU HIST1H1D (11736915_at) / Fold change /veh HIST1H1D (11736915_at) / RFU CASKIN2 (11723855_a_at) / Fold change /veh CASKIN2 (11723855_a_at) / RFU LOC730098 (11760151_x_at) / Fold change /veh LOC730098 (11760151_x_at) / RFU OR4N2 (11742367_at) / Fold change /veh OR4N2 (11742367_at) / RFU PRRT2 (11749266_a_at) / Fold change /veh PRRT2 (11749266_a_at) / RFU SNX32 (11753110_a_at) / Fold change /veh SNX32 (11753110_a_at) / RFU CDHR5 (11726645_a_at) / Fold change /veh CDHR5 (11726645_a_at) / RFU RCAN1 (11760418_a_at) / Fold change /veh RCAN1 (11760418_a_at) / RFU FAM167A (11723789_a_at) / Fold change /veh FAM167A (11723789_a_at) / RFU FAM26E (11764081_at) / Fold change /veh FAM26E (11764081_at) / RFU ISYNA1 (11749810_s_at) / Fold change /veh ISYNA1 (11749810_s_at) / RFU ACY1 (11761880_at) / Fold change /veh ACY1 (11761880_at) / RFU 11764098_at / Fold change /veh 11764098_at / RFU SAMD14 (11745864_x_at) / Fold change /veh SAMD14 (11745864_x_at) / RFU NPB (11741838_a_at) / Fold change /veh NPB (11741838_a_at) / RFU TMPRSS6 (11731388_a_at) / Fold change /veh TMPRSS6 (11731388_a_at) / RFU KRTAP10-2 (11738614_at) / Fold change /veh KRTAP10-2 (11738614_at) / RFU ARHGAP8 /// PRR5-ARHGAP8 (11727945_x_at) / Fold change /veh ARHGAP8 /// PRR5-ARHGAP8 (11727945_x_at) / RFU KRTAP5-7 /// NADSYN1 (11734609_at) / Fold change /veh KRTAP5-7 /// NADSYN1 (11734609_at) / RFU RASL12 (11751679_a_at) / Fold change /veh RASL12 (11751679_a_at) / RFU CDKN2B (11736163_a_at) / Fold change /veh CDKN2B (11736163_a_at) / RFU PRF1 (11729649_at) / Fold change /veh PRF1 (11729649_at) / RFU, ZNF638 /// ZNF638-IT1 / Fold change vs veh, ZNF638 /// ZNF638-IT1 / RFU, PANK3 / Fold change vs veh, PANK3 / RFU, SH3YL1 / Fold change vs veh, SH3YL1 / RFU, ZEB2 / Fold change vs veh, ZEB2 / RFU, NRIP1 / Fold change vs veh, NRIP1 / RFU, PTTG1IP / Fold change vs veh, PTTG1IP / RFU, CAPN2 / Fold change vs veh, CAPN2 / RFU, MED14 / Fold change vs veh, MED14 / RFU, SNORA58 / Fold change vs veh, SNORA58 / RFU, C1orf63 / Fold change vs veh, C1orf63 / RFU, LRRFIP1 / Fold change vs veh, LRRFIP1 / RFU, NDUFAF7 / Fold change vs veh, NDUFAF7 / RFU, SLC12A2 / Fold change vs veh, SLC12A2 / RFU, IBTK / Fold change vs veh, IBTK / RFU, ESF1 / Fold change vs veh, ESF1 / Fold change vs veh, TMEM50B / RFU, TAOK1 / Fold change vs veh, TAOK1 / RFU, ACBD3 / Fold change vs veh, ACBD3 / RFU, TMA16 / Fold change vs veh, TMA16 / RFU, RWDD3 / Fold change vs veh, RWDD3 / RFU, BCAT1 / Fold change vs veh, BCAT1 / RFU, EDEM3 / Fold change vs veh, EDEM3 / RFU, TMEM33 / Fold change vs veh, TMEM33 / RFU, WDR75 / Fold change vs veh, WDR75 / RFU, AHCTF1 / Fold change vs veh, AHCTF1 / RFU, TFRC / Fold change vs veh, TFRC / RFU, ZDHHC17 / Fold change vs veh, ZDHHC17 / RFU, NOM1 / Fold change vs veh, NOM1 / RFU, ARL8B / Fold change vs veh, ARL8B / RFU, ZBTB11 / Fold change vs veh, ZBTB11 / RFU, TAMM41 / Fold change vs veh, TAMM41 / RFU, KIAA1704 /// LOC100996395 / Fold change vs veh, KIAA1704 /// LOC100996395 / RFU, ING1 / Fold change vs veh, ING1 / RFU, TRMT61B / Fold change vs veh, TRMT61B / RFU, FUBP3 / Fold change vs veh, FUBP3 / RFU, TP53 / Fold change vs veh, TP53 / RFU, TNKS2 / Fold change vs veh, TNKS2 / RFU, ZFP14 / Fold change vs veh, ZFP14 / RFU, ACTR2 / Fold change vs veh, ACTR2 / RFU, PPP3R1 / Fold change vs veh, PPP3R1 / RFU, PIK3R1 / Fold change vs veh, PIK3R1 / RFU, HNRNPA1 / Fold change vs veh, HNRNPA1 / RFU, RNF170 / Fold change vs veh, RNF170 / RFU, ZNF28 / Fold change vs veh, ZNF28 / RFU, RNGTT / Fold change vs veh, RNGTT / RFU, OGT / Fold change vs veh, OGT / RFU, BRD1 / Fold change vs veh, BRD1 / RFU, MARS / Fold change vs veh, MARS / RFU, ZNF655 / Fold change vs veh, ZNF655 / RFU, FAHD1 / Fold change vs veh, FAHD1 / RFU, BDP1 / Fold change vs veh, BDP1 / RFU, LRRCC1 / Fold change vs veh, LRRCC1 / RFU, ARID1A / Fold change vs veh, ARID1A / RFU, ZNF146 / Fold change vs veh, ZNF146 / RFU, ZNF330 / Fold change vs veh, ZNF330 / RFU, GPN3 / Fold change vs veh, GPN3 / RFU, C9orf123 / Fold change vs veh, C9orf123 / RFU, N4BP2L2 / Fold change vs veh, N4BP2L2 / RFU, ARFIP1 / Fold change vs veh, ARFIP1 / RFU, FAM179B / Fold change vs veh, FAM179B / RFU, BCL10 / Fold change vs veh, BCL10 / RFU, UHRF1BP1L / Fold change vs veh, UHRF1BP1L / RFU, BET1 / Fold change vs veh, BET1 / RFU, CNOT2 / Fold change vs veh, CNOT2 / RFU, ZNF268 / Fold change vs veh, ZNF268 / Fold change vs veh, ZNF507 / RFU, DGCR2 / Fold change vs veh, DGCR2 / RFU, WDSUB1 / Fold change vs veh, WDSUB1 / Fold change vs veh, HSP90B1 /// MIR3652 / RFU, ADSS / Fold change vs veh, ADSS / RFU, GK / Fold change vs veh, GK / RFU, ZNF148 / Fold change vs veh, ZNF148 / RFU, TAF9 / Fold change vs veh, TAF9 / RFU, SLC1A5 / Fold change vs veh, SLC1A5 / RFU, SLMO2 / Fold change vs veh, SLMO2 / RFU, ABCC4 / Fold change vs veh, ABCC4 / RFU, LOC101060439 /// RAP1B / Fold change vs veh, LOC101060439 /// RAP1B / RFU, RFX7 / Fold change vs veh, RFX7 / RFU, GTPBP10 / Fold change vs veh, GTPBP10 / RFU, CNEP1R1 / Fold change vs veh, CNEP1R1 / RFU, BIVM-ERCC5 /// ERCC5 / Fold change vs veh, BIVM-ERCC5 /// ERCC5 / RFU, ILF3 / Fold change vs veh, ILF3 / RFU 11762660_at / Fold change /veh 11762660_at / RFU VCAN (11757783_s_at) / Fold change /veh VCAN (11757783_s_at) / RFU DDX43 (11728927_at) / Fold change /veh DDX43 (11728927_at) / RFU KRT8 (11758188_x_at) / Fold change /veh KRT8 (11758188_x_at) / RFU NKD1 (11759106_at) / Fold change /veh NKD1 (11759106_at) / RFU SRD5A1 (11742802_a_at) / Fold change /veh SRD5A1 (11742802_a_at) / RFU TPSAB1 /// TPSB2 (11721975_s_at) / Fold change /veh TPSAB1 /// TPSB2 (11721975_s_at) / RFU GSTM3 (11746129_a_at) / Fold change /veh GSTM3 (11746129_a_at) / RFU IL23R (11737362_x_at) / Fold change /veh IL23R (11737362_x_at) / RFU TMEM51 (11727254_a_at) / Fold change /veh TMEM51 (11727254_a_at) / RFU PIWIL2 (11732686_x_at) / Fold change /veh PIWIL2 (11732686_x_at) / RFU ORM1 (11744905_x_at) / Fold change /veh ORM1 (11744905_x_at) / RFU CCDC152 (11743942_at) / Fold change /veh CCDC152 (11743942_at) / RFU ECM1 (11717891_a_at) / Fold change /veh ECM1 (11717891_a_at) / RFU IL23R (11748794_a_at) / Fold change /veh IL23R (11748794_a_at) / RFU TNFAIP8L3 (11732012_x_at) / Fold change /veh TNFAIP8L3 (11732012_x_at) / RFU MBOAT4 (11741988_at) / Fold change /veh MBOAT4 (11741988_at) / RFU 11764193_at / Fold change /veh 11764193_at / RFU TMEM53 (11763286_at) / Fold change /veh TMEM53 (11763286_at) / RFU MAGEB2 (11727129_at) / Fold change /veh MAGEB2 (11727129_at) / RFU TMEM200A (11744735_a_at) / Fold change /veh TMEM200A (11744735_a_at) / RFU CCDC152 (11751479_a_at) / Fold change /veh CCDC152 (11751479_a_at) / RFU FAM211A (11726209_a_at) / Fold change /veh FAM211A (11726209_a_at) / RFU RGS16 (11746705_a_at) / Fold change /veh RGS16 (11746705_a_at) / RFU VCAN (11755009_s_at) / Fold change /veh VCAN (11755009_s_at) / RFU RHOB (11743442_s_at) / Fold change /veh RHOB (11743442_s_at) / RFU RGS16 (11720943_a_at) / Fold change /veh RGS16 (11720943_a_at) / RFU RGS16 (11720944_at) / Fold change /veh RGS16 (11720944_at) / RFU, VPS4B / Fold change vs veh, VPS4B / RFU, CREB1 / Fold change vs veh, CREB1 / RFU, DNAJC13 / Fold change vs veh, DNAJC13 / RFU, GNAQ / Fold change vs veh, GNAQ / RFU, CDK5R1 / Fold change vs veh, CDK5R1 / RFU, ZRANB3 / Fold change vs veh, ZRANB3 / RFU, CUL4A / Fold change vs veh, CUL4A / RFU, CCNY / Fold change vs veh, CCNY / RFU, UFL1 / Fold change vs veh, UFL1 / RFU, COG3 / Fold change vs veh, COG3 / RFU, DIAPH2 / Fold change vs veh, DIAPH2 / RFU, SKA2 / Fold change vs veh, SKA2 / RFU, AFF3 / Fold change vs veh, AFF3 / RFU, LMF1 / Fold change vs veh, LMF1 / RFU, IPO11 / Fold change vs veh, IPO11 / RFU, DFFB / Fold change vs veh, DFFB / RFU, FOXP1 / Fold change vs veh, FOXP1 / RFU, CARD8 / Fold change vs veh, CARD8 / RFU, STRN3 / Fold change vs veh, STRN3 / RFU, ADK / Fold change vs veh, ADK / RFU, RASSF2 / Fold change vs veh, RASSF2 / RFU, WIPF1 / Fold change vs veh, WIPF1 / RFU, LARP1B / Fold change vs veh, LARP1B / RFU, RASA1 / Fold change vs veh, RASA1 / RFU, RB1 / Fold change vs veh, RB1 / RFU, PPFIA1 / Fold change vs veh, PPFIA1 / RFU, MAT2A / Fold change vs veh, MAT2A / RFU, CCT5 / Fold change vs veh, CCT5 / RFU, WDR92 / Fold change vs veh, WDR92 / RFU, CUX1 / Fold change vs veh, CUX1 / RFU, TTC7A / Fold change vs veh, TTC7A / RFU, TMEM135 / Fold change vs veh, TMEM135 / RFU, DEPTOR / Fold change vs veh, DEPTOR / RFU, CPM / Fold change vs veh, CPM / RFU, DNAJB6 / Fold change vs veh, DNAJB6 / RFU, CACNA2D3 / Fold change vs veh, CACNA2D3 / RFU, DTX4 / Fold change vs veh, DTX4 / RFU, TFCP2 / Fold change vs veh, TFCP2 / RFU, GMCL1 /// GMCL1P1 / Fold change vs veh, GMCL1 /// GMCL1P1 / RFU, AEBP2 / Fold change vs veh, AEBP2 / RFU, SNHG1 /// SNORD22 /// SNORD25 /// SNORD26 /// SNORD27 /// SNORD28 /// SNORD29 /// SNORD31 / Fold change vs veh, SNHG1 /// SNORD22 /// SNORD25 /// SNORD26 /// SNORD27 /// SNORD28 /// SNORD29 /// SNORD31 / Fold change (Aza/veh), C12orf56 (ProbeSet 11735607_a_at) / Fold change (ACY-1035/veh), C12orf56 (ProbeSet 11735607_a_at) / Fold change (Aza/veh), FGFR1OP (ProbeSet 11751329_s_at) / Fold change (ACY-1035/veh), FGFR1OP (ProbeSet 11751329_s_at) / Fold change (Aza/veh), VPS36 (ProbeSet 11739960_a_at) / Fold change (ACY-1035/veh), VPS36 (ProbeSet 11739960_a_at) / RFU SYPL1 (11715823_x_at) / Fold change /veh SYPL1 (11715823_x_at) / RFU IGFBP7 (11715501_s_at) / Fold change /veh IGFBP7 (11715501_s_at) / RFU REEP3 (11722064_at) / Fold change /veh REEP3 (11722064_at) / RFU IGLL1 (11728026_x_at) / Fold change /veh IGLL1 (11728026_x_at): dose or concentration left out as unconfirmed
# Settings: MV-4-11 cells, 48 hours
structure (smiles),measurement,value
Nc1ccc(-c2cccs2)cc1NC(=O)c1ccc2c(c1)cc(C1CC1)n2CCN1CCOCC1 [ACY-1035],Fold change /veh KRTAP10-11 (11738290_x_at),1.00
